Measured values: US5043332A, “Novel 11β-substituted -19-nor-steriods” (priority 1981, dated 1991)

Target: T1, Progestogen receptor of the uterus of rabbits (Oryctolagus cuniculus, UniProt P06186)
T1 construct: The uterus was removed, weighed and homogenized at 0° C; from tissue; host or cells: rabbit uterus, 105,000 g supernatant (estradiol-primed immature rabbits)
T1 sequence (P06186 1-930): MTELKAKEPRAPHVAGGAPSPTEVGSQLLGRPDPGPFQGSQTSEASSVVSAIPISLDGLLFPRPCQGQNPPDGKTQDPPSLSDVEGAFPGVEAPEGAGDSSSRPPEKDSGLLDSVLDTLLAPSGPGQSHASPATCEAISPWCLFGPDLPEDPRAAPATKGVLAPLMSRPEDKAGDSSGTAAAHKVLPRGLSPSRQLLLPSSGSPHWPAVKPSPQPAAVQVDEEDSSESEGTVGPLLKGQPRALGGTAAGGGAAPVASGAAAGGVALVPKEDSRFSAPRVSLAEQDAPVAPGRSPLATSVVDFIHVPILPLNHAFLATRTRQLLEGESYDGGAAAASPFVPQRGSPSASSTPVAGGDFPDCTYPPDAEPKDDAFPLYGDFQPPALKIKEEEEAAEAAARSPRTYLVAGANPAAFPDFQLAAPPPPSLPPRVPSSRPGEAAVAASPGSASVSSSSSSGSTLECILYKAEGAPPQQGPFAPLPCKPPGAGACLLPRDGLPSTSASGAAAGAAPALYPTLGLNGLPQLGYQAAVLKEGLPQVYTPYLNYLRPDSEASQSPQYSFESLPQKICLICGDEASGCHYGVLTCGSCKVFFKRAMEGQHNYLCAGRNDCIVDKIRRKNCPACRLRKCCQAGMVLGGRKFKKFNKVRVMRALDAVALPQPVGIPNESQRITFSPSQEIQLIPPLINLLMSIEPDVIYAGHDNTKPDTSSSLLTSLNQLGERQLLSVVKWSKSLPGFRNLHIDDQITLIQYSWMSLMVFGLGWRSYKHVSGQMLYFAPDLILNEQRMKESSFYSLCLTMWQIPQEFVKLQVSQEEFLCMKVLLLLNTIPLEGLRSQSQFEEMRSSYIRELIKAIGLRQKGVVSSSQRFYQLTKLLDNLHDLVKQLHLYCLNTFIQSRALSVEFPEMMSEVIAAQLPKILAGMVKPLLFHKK
Test: Progestogen receptor binding (displacement of tritiated product R)
Design: species or system rabbit
Settings: for affinity for progestogen receptors (in words): conclusion
Experimental: C. Progestogen receptor of the uterus of rabbits
Immature rabbits weighing about 1 kg received a cutaneous application of 25 μg of estradiol and the animals were killed 5 days later. The uterus was removed, weighed and homogenized at 0° C. with a polytetrafluoroethylene-glass Potter, in a buffered TS solution [Tris 10. mM, 0.25M of saccharose, HCl-pH of 7.4] with 1 g of tissue per 50 ml of TS. […] The concentration of tied tritiated R (B) was then measured for each incubate by the technique of adsoprtion on carbon-dextran.
The calculation of the relative affinity of […] (ARL) was identical for all of the above receptor tests. One traced the following two curves: the percentage of tied tritiated hormone B/T as a function of the logarithm of the cold hormone concentration and B/T as a function of the logarithm of the concentration of the cold test product. One determined the line of the equation. [formula]
The intersection of the I50 line and the curves permits one to determine the concentrations of the cold hormone of the reference (CH) and the cold test compound (CX) which inhibit by 50% the tieing of tritiated hormone with the receptor. The relative affinity of tieing (ARL) of the test product was determined by the equation: [formula]

[1] = second table, incubation 2 H at 0° C.
[2] = second table, incubation 24 H at 0° C.

| SMILES | relative affinity of tieing (ARL), Progestogen (incubation 2 H at 0° C.) | relative affinity of tieing (ARL), Progestogen (incubation 24 H at 0° C.) | affinity for progestogen receptors (in words) | relative affinity of tieing (ARL), Progestogen [1] | relative affinity of tieing (ARL), Progestogen [2] |
| --- | --- | --- | --- | --- | --- |
| CC#C[C@]1(OC(C)=O)CC[C@H]2[C@@H]3CCc4cc(O)ccc4[C@H]3[C@@H](c3ccc(N(C)C)cc3)C[C@@]21C [2 (17 OAc), 11β-(4-dimethylaminophenyl)-17α-(prop-1-ynyl)-17β-acetoxy-Δ^1,3,5(10) -estratriene-3-ol] | 5 | 52 | – | – | – |
| CC#C[C@]1(O)CC[C@H]2[C@@H]3CCC4=CC(=O)[C@H](C)CC4=C3[C@@H](c3ccc(N(C)C)cc3)C[C@@]21C [5 (2α), 2α-methyl-11β-(4-dimethylaminophenyl)-17α-(prop-1-ynyl)-Δ^4,9-estradiene-17β-ol-3-one] | 40 | 39 | – | – | – |
| CC#C[C@]1(O)CC[C@H]2[C@@H]3CCC4=CC(=O)[C@@H](C)CC4=C3[C@@H](c3ccc(N(C)C)cc3)C[C@@]21C [5 (2β), 2-methyl-11β-(4-dimethylaminophenyl)-17α-(prop-1-ynyl)-Δ^4,9-estradiene-17β-ol-3-one] | 44 | 44 | – | – | – |
| CC#C[C@]1(O)CC[C@H]2[C@@H]3CCC4=CC(=O)C(C)(C)CC4=C3[C@@H](c3ccc(N(C)C)cc3)C[C@@]21C [Example 1, 2,2-dimethyl-11β-(4-dimethylaminophenyl)-17α-(prop-1-ynyl)-Δ^4,9-estradiene-17β-ol-3-one] | 4 | 4 | – | – | – |
| CC#C[C@]1(O)CC[C@H]2[C@@H]3CCC4=CC(=O)[C@H](C)CC4=C3[C@@H](c3ccc(N(C)C)cc3)C[C@@]21C [Example 5, 2α-methyl-11β-(4-dimethylaminophenyl)-17α-(prop-1-ynyl)-Δ^4,9-estradiene-17β-ol-3-one] | – | – | very remarkable affinity | – | – |
| CC#C[C@]1(O)CC[C@H]2[C@@H]3CCC4=CC(=O)C(C#N)(C#N)CC4=C3[C@@H](c3ccc(N(C)C)cc3)C[C@@]21C [Example 9, 2,2-dicyano-11β-(4-dimethylaminophenyl)-17α-(prop-1-ynyl)-Δ^4,9-estradiene-17β-ol-3-one] | < 0,1 | < 0,1 | – | – | – |
| CC#C[C@]1(O)CC[C@H]2[C@@H]3CCC4=C(CCC(=O)C4)[C@H]3[C@@H](c3ccc(N(C)C)cc3)C[C@@]21C [Example 10, 11β-(4-dimethylaminophenyl)-17α-(prop-1-ynyl)-Δ^5(10) -estrene-17β-ol-3-one] | 27 | 62 | – | – | – |
| C#C[C@@]1(O)CC[C@H]2[C@@H]3CCC4=CC(=O)CCC4=C3[C@@H](c3ccc(N(C)C)cc3)C[C@@]21C [Example 21, 11β-[4-(N,N-dimethylamino)-phenyl]-17β-ethynyl-Δ^4,9-estradiene-17α-ol-3-one] | – | – | – | 10 | 4,3 |
| C=C(C)C#C[C@]1(O)CC[C@H]2[C@@H]3CCC4=CC(=O)CCC4=C3[C@@H](c3ccc(N(C)C)cc3)C[C@@]21C [Example 23, 11β-[4-(N,N-dimethylamino)-phenyl]-23-methyl-19,21-dinor-17α-Δ^4,9,23-cholatriene-20-yn-17β-ol-3-one] | – | – | – | 81 | 268 |
| CN(C)c1ccc([C@H]2C[C@@]3(C)[C@@H](CC[C@@]3(O)C#CCl)[C@@H]3CCC4=CC(=O)CCC4=C32)cc1 [Example 25, 11β-[4-(N,N-dimethylamino)-phenyl]-21-chloro-19-nor-17α-Δ^4,9-pregnadiene-20-yne-17β-ol-3-one] | – | – | very remarkable affinity | 78 | 467 |
| C[C@]12C[C@H](c3ccc([N+](C)(C)[O-])cc3)C3=C4CCC(=O)C=C4CC[C@H]3[C@@H]1CC[C@@]2(O)C#CCl [Example 26, N-oxide of 11β-[4-(N,N-dimethylamino)-phenyl]-21-chloro-19-nor-17α-Δ^4,9-pregnadiene-20-yne-17β-ol-3-one] | – | – | – | 6,3 | 8,3 |
| C[C@]12C[C@H](c3ccc([N+](C)(C)[O-])cc3)[C@]34O[C@]35CCC(=O)C=C5CC[C@H]4[C@@H]1CC[C@@]2(O)C#CCl [Example 27, N-oxide of 11β-[4-(N,N-dimethylamino)-phenyl]-9α,10α-epoxy-21-chloro-19-nor-17α-Δ^4-pregnene-20-yne-17β-ol-3-one] | – | – | – | 0,6 | 0,4 |
| CN(C)c1ccc([C@H]2C[C@@]3(C)[C@@H](CC[C@@]3(O)C#Cc3ccccc3)[C@@H]3CCC4=CC(=O)CCC4=C32)cc1 [Example 29, 11β-[4-(N,N-dimethylamino)-phenyl]-21-phenyl-19-nor-17α-Δ^4,9-pregnadiene-20-yne-17β-ol-3-one] | – | – | – | 41 | 250 |
| C#C[C@]1(O)CC[C@H]2[C@@H]3CCC4=CC(=O)CCC4=C3[C@@H](c3ccc(N(C)C)cc3)C[C@@]21C [Example 32, 11β-[4-(N,N-dimethylamino)-phenyl]-17α-ethynyl-Δ^4,9-estradiene-17β-ol-3-one] | – | – | very remarkable affinity | 81 | 351 |
| CC#C[C@]1(O)CC[C@H]2[C@@H]3CCC4=CC(=O)CCC4=C3[C@@H](c3ccc([N+](C)(C)[O-])cc3)C[C@@]21C [Example 35, N-oxide of 11β-[4-(N,N-dimethylamino)-phenyl]-17α-(prop-1-ynyl)-Δ^4,9-estradiene-17β-ol-3-one] | – | – | – | 1,1 | 2,5 |
| C=CC[C@]1(O)CC[C@H]2[C@@H]3CCC4=CC(=O)CCC4=C3[C@@H](c3ccc(N(C)C)cc3)C[C@@]21C [Example 37, 11β-[4-(N,N-dimethylamino)-phenyl]-17α-(prop-2-enyl)-Δ^4,9-estradien-17β-ol-3-one] | – | – | very remarkable affinity | 175 | 843 |
| CN(C)c1ccc([C@H]2C[C@@]3(C)[C@@H](CC[C@@]3(O)C#C[Si](C)(C)C)[C@@H]3CCC4=CC(=O)CCC4=C32)cc1 [Example 44, 11β-[4-(N,N-dimethylamino)-phenyl]-21-trimethylsilyl-19-nor-17α-Δ^4,9-pregnadiene-20-yne-17β-ol-3-one] | – | – | – | 15,2 | 38 |
